For 1 compound, Activity and IC50 results are on record in ChEMBL document CHEMBL1143044, “The isolation of secondary metabolites and in vitro potent anti-cancer activity of clerodermic acid from Enicosanthum membranifolium” (Bioorg Med Chem, 2007).

The source made the active and inactive calls. No cut-off for these calls is given here.

Common to all, as to assay type: functional, cell-based
Experiment [1] deals with HL-60. The experiment in a line: Induction of apoptosis in human HL60 cells assessed as nucleosomal DNA fragmentation after 24 hrs.
In experiment [2] the test system is HL-60. Kind of experiment: Induction of apoptosis in human HL60 cells at 200 uM in presence of 100 uM caspase inhibitor ZVADFMK by Trypan blue exclusion test.
Experiment [3] relates to HL-60. The experiment in a line: Growth inhibition of human HL60 cells by Trypan blue exclusion test.

For orientation: IC50 means the midpoint of a concentration-inhibition curve. Lower therefore signals greater potency in that assay. As to `C[C@@H]1CC[C@@]2(C)C(C(=O)O)=CCCC2[C@@]1(C)CCC1=CC(=O)OC1` (stereo partly drawn) [CLERODERMIC ACID], the outcome in the experiment on HL-60 [1] and in the experiment on HL-60 [2] was Active. The compound also had an IC50 in the experiment on HL-60 [3] of 68 µM.
